Here are results for 19 compounds from PMC11990158, “Synthetic Epoxyeicosatrienoic Acid Mimics Protect Mesangial Cells from Sorafenib-Induced Cell Death” (Molecules, 2025).

The pIC50 is the negative decadic logarithm of the IC50, by convention in mol/L.

pIC50: −log10 of the molar value.

One assay concerns the target T1, human soluble epoxide hydrolase (sEH) (Homo sapiens, UniProt P34913).
T1 sequence (P34913 1-555): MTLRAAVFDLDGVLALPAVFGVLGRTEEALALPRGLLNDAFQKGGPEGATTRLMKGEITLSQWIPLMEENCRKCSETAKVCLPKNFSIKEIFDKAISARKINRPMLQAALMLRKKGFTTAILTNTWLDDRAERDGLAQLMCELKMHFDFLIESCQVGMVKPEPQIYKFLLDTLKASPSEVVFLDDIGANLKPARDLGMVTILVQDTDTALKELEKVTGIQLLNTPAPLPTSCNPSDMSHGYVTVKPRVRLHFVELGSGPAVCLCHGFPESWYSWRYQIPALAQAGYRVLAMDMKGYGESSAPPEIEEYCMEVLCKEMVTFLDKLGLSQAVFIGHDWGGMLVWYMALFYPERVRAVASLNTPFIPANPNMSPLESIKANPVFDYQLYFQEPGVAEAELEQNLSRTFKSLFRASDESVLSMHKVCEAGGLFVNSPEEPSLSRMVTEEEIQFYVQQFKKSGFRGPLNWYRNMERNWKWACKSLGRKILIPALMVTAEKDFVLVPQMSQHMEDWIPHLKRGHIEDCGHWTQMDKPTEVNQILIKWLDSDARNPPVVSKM
Assay: not given
The note with it: cited from earlier work.
Consider `CNC(=O)c1cc(Oc2ccc(NC(=O)Nc3ccc(Cl)c(C(F)(F)F)c3)cc2)ccn1` [Sorafenib], for which the “sEH inhibition (in words)” value was “potent sEH inhibitor”.

The test system of a further assay is human renal mesangial cells (HRMCs). Briefly: WST-8 cell viability assay, protection against sorafenib-induced cell death. In kind it is cell-based. The settings on record: sorafenib 10 µM alone, 48 h. Here is the method:
Human renal mesangial cells (4200, ScienCell, Carlsbad, CA, USA) were cultured at 37 °C (in 5% CO2) in RPMI 1640 medium (Gibco™, LS11875093) containing 10% FBS, 100 U/mL of penicillin, and 0.1 mg/mL of streptomycin. The cells were subculture following the protocol of the manufacturer.
WST assay: To evaluate the effect of 8,9-EET analogs and sorafenib on the viability of human renal mesangial cells, a 96-well TPP plate is seeded with cells, which are then allowed to adhere. Over the course of 24 h, they undergo serum starvation before being subject to one of five treatments: Control (no treatment), Sorafenib (10 µM), Sorafenib plus 8,9-EET analogs (1 µM, 3 µM or 10 µM). After 48 h incubation, a WST assay used to gain information on cell survival; we added 10 μL WST reagent per well and incubated for 2 h. WST-8 tetrazolium salt is reduced by cellular dehydrogenases to an orange formazan product that is soluble in tissue culture medium. The amount of formazan produced is directly proportional to the number of living cells and is measured by absorbance at 460 nm. The absorbance at 460 nm is determined using a Synergy 4 Microplate Reader.
On the technique in general: Tetrazolium dyes change colour on reduction, which living cells bring about.
For the compound `CNC(=O)c1cc(Oc2ccc(NC(=O)Nc3ccc(Cl)c(C(F)(F)F)c3)cc2)ccn1` [Sorafenib], the “cells dying on sorafenib exposure” value was “around 90%”.

For the next assay, the target named is T1, human soluble epoxide hydrolase (sEH). Briefly: Human sEH inhibition, fluorescent assay (MNPC substrate). In kind it is biochemical.
Conditions: not given
The method, then:
The inhibition potency of the compounds against the recombinant purified human and mouse sEH and human mEH were measured using sensitive fluorescent assays. The enzymes were diluted to the proper buffer and aliquoted in black 96-well plates. The enzymes were incubated with the inhibitors (0.4 < [I] < 50,000 nM) for 5 min at 37 °C before the introduction of the reporting substrate. For the sEH, nonfluorescent cyano(6-methoxy-naphthalen-2-yl)methyl trans-[(3-phenyloxiran-2-yl)methyl] carbonate MNPC was used as the reporting substrate at a final concentration of 5 μM [51]. For the mEH, cyano(6-methoxy-naphthalen-2-yl)methyl glycidyl carbonate (MNGC) was used at a final concentration of 5 µM. The formation of the product (6-methoxynaphthaldehyde) was measured ([…]) every 30 s for 10 min by a Molecular Device M-2 plate reader. All measurements were performed in triplicate. The inhibitory potency (IC50) was calculated by regression of at least four data points on both sides of the 50% mark.
As to `CCCCCCCCCCCNC(=O)C(=O)NCCCCCC(=O)O` [8b, 6-(2-Oxo-2-(undecylamino)acetamido)hexanoic Acid], the “sEH inhibition (in words)” value is recorded as “insignificant inhibitor of sEH”.

Staying with this assay, now noted: recombinant purified human sEH, 5 min preincubation at 37 °C, MNPC 5 µM; read-out: HsEH IC50.
For `CCCCCCCCCCCCNC(=O)CCCCCCC(=O)O` [10b, 8-(Dodecylamino)-8-oxooctanoic Acid], the negative-log IC50 (pIC50) is 5.57.

Consider `CCCCCCCCCCCC(=O)NCCCCCCC(=O)O` [9c, 7-Dodecanamidoheptanoic Acid], for which the pIC50 was 5.64.

Regarding `CCCCCCCCCCCCC(=O)NCCCCCCC(=O)O` [9d, 7-Tridecanamidoheptanoic Acid], the negative-log IC50 (pIC50) was 5.62.

For `CCCCCCCCCCCNC(=O)C(=O)NCCCCCC(=O)O` [8b, 6-(2-Oxo-2-(undecylamino)acetamido)hexanoic Acid], the negative-log IC50 (pIC50) is < 4.00.

For the compound `CCCCCCCCCCNC(=O)NCCCCOCC(=O)O` [7a, 2-(4-(3-Decylureido)butoxy)acetic Acid], the pIC50 was 6.08.

Consider `CCCCCCCCCCCNC(=O)NCCCCOCC(=O)O` [7b, 2-(4-(3-Undecylureido)butoxy)acetic Acid], for which the pIC50 was 5.74.

Turning to `CCCCCCCCCCCCC(=O)NCCCCCC(=O)O` [9b, 6-Tridecanamidohexanoic Acid], the pIC50 was 5.19.

For `CCCCCCCCCCNC(=O)NC/C=C\COCC(=O)O` [7c, (Z)-2-((4-(3-Decylureido)but-2-en-1-yl)oxy)acetic Acid], the pIC50 is 5.68.

`CCCCCCCC/C=C\CNC(=O)CCCCCCCC(=O)O` [10d, (Z)-9-Oxo-9-(undec-2-en-1-ylamino)nonanoic Acid]: the pIC50 is 6.09.

Regarding `CCCCCCCCCCNC(=O)C(=O)NCCCCCC(=O)O` [8a, 6-(2-(Decylamino)-2-oxoacetamido)hexanoic Acid], the pIC50 was 4.29.

Take `CCCCCCCCCCNC(=O)C(=O)NCCCCCCC(=O)O` [8d, 7-(2-(Decylamino)-2-oxoacetamido)heptanoic Acid]: the pIC50 was 4.31.

As for `CCCCCCCCCCCNC(=O)CCCCCCC(=O)O` [10a, 8-Oxo-8-(undecylamino)octanoic Acid], the pIC50 is 5.46.

On to `CCCCCCCC/C=C\CNC(=O)NC/C=C\COCC(=O)O` [7f, 2-(((Z)-4-(3-((Z)-undec-2-en-1-yl)ureido)but-2-en-1-yl)oxy)acetic Acid], for which the pIC50 was 5.59.

In the case of `CCCCCCCC/C=C\CNC(=O)NCCCCOCC(=O)O` [7e, (Z)-2-(4-(3-(undec-2-en-1-yl)ureido)butoxy)acetic Acid], the pIC50 is 5.80.

Turning to `CCCCCCCC/C=C\CNC(=O)C(=O)NCCCCCC(=O)O` [8e, (Z)-6-(2-Oxo-2-(undec-2-en-1-ylamino)acetamido)hexanoic Acid], the negative-log IC50 (pIC50) was 4.72.

Consider `CCCCCCCCCCCNC(=O)CCCCCCCC(=O)O` [10c, 9-Oxo-9-(undecylamino)nonanoic Acid], for which the pIC50 is 6.05.

Turning to `CCCCCCCCCNC(=O)C(=O)NCCCCCCC(=O)O` [8c, 7-(2-(Nonylamino)-2-oxoacetamido)heptanoic Acid], the pIC50 is 4.19.

Regarding `CCCCCCCCCCCC(=O)NCCCCCC(=O)O` [9a, 6-Dodecanamidohexanoic Acid], the negative logarithm of the IC50 (pIC50) was 5.02.
